The results in this text go back to US20240158448A1, “MULTIVALENT NANO-'SELF' PEPTIDES AND USES THEREOF” (THE TRUSTEES OF THE UNIVERSITY OF PENNSYLVANIA, priority 2021, published 2024).

Entries after “also recorded” stand apart in the source; their conditions may differ. No end group written: not given here.

Assay [1] deals with human THP-1 macrophages. The assay can be described thus: In vitro phagocytosis assay: opsonized human RBCs engulfed by peptide-treated THP-1 macrophages. The assay is classed as cell-based. The procedure: In vitro phagocytosis assay. Fresh human RBCs were washed twice with 50 mM EDTA (Thermo Fischer) in PBS (Gibco) then twice with 5% FBS in PBS. RBCs were opsonized with 20 μg/mL rabbit anti-human RBC antibody (Rockland) in 5% FBS for 1 hour at RT with shaking. For CD47 blocked RBCs, 5 μg/mL of mouse anti-human CD47 (B6H12; BD Biosciences) were added. Thereafter, RBCs were washed with PBS three times and stained with PKH26 dye (1:800 dilution in PBS; Sigma) for 1 hour at RT with shaking in the dark. RBCs were washed and resuspended in PBS.
THP-1 monocytes were PMA differentiated in RPMI for 48 hours. Macrophages were then washed with RPMI media three times. For SIRPα blocked THP-1 macrophages, 20 nM, 1 μM or 50 μM of the nano—Self peptides were incubated with the THP-1 macrophages for 1 hour at 37 ° C., 5% CO2 and 95% humidity. Those THP-Is were then washed with RPMI three times.
(§1) CO2 and 95% humidity. Macrophages were then washed with RPMI three times. Adherent and uninternalized RBCs were lysed with water for 30 seconds followed by immediate replacement with RPMI media. In order to distinguish remaining adherent RBCs from internalized RBCs, opsonized RBCs were stained with AlexaFluor 647 donkey anti-rabbit (binds to rabbit polyclonal opsonin on RBC; Invitrogen) IgG (1:1000) while unopsonized, CD47 blocked RBCs were stained with AlexaFluor 647 donkey anti-mouse (binds to mouse monoclonal anti-CD47 on RBCs; Invitrogen) IgG (1:1000) for 30 minutes. After washing, macrophages were fixed with 4% formaldehyde for 15 minutes at RT, washed with PBS, stained with 1 μg/mL Hoechst 33342, and then washed with PBS again. Fluorescence imaging was performed as described elsewhere herein and quantification was done using ImageJ. At least 200 cells were analyzed and experiments were repeated at least three times.

A further assay relates to THP-1 macrophages. The assay can be described thus: Phosphotyrosine (pTyr) staining of THP-1 macrophages. The assay is classed as cell-based, human. As to conditions: 50 μM peptide. On the procedure:
Phosphotyrosine (pTyr) staining. THP-1 monocytes were PMA differentiated for 48 hours. Macrophages were washed with RPMI three times then incubated with 50 μM and 20 nM of either nS-F or nS-FF for 1 hour at 37° C., 5% CO2 and 95% humidity. The same conditions were replicated with the addition of 5 μg/mL anti-CD47. Excess peptide was washed with PBS then macrophages were fixed. […] After washing with PBS, the macrophages were incubated with 1:100 mouse anti-pTyr (Santa Cruz Biotechnology) for 1 hour at room temperature with shaking. Macrophages were washed with PBS then stained with AlexaFluor 488 donkey anti-mouse (1:1000; Invitrogen) and 1 μg/mL Hoechst 33342 for 1 hour with shaking then washed again. Fluorescence imaging and quantification was performed as described elsewhere herein.

Assay [2] has as its system mouse bone marrow derived macrophages (BMDMs). The assay can be described thus: Phagocytosis of anti-TYRP1 opsonized B16F10 melanoma cells by mouse bone marrow derived macrophages. The assay is classed as cell-based. Conditions: 50 μM peptide. The procedure: B16F10 cells: Bone marrow cells were isolated from femurs and tibias of healthy C57BL6/J mice (The Jackson Laboratory) and cultured in 10-cm petri dishes containing IMDM (Gibco) supplemented with 10% v/v FBS, 1% v/v penicillin/streptomycin, and 1:10,000 macrophage colony stimulating factor cytokine (M-CSF; Biolegend) for 7 days at 37° C., 5% CO2 and 95% humidity. All animal experiments were performed according to protocols approved by the University of Pennsylvania's IACUC (protocol #805977 and #804455). The resulting mouse bone marrow derived macrophages (BMDMs) were washed with PBS containing Ca2^+/Mg2^+ (Gibco) then detached with 0.25% trypsin-EDTA (Gibco) and re-plated in 6-well tissue culture plates using IMDM+M-CSF for 24 hours.
Mouse melanoma B16F10 cells were washed with PBS containing Ca2-/Mg2- and then trypsinized with 0.05% trypsin-EDTA. After washing twice with PBS, the cells were labeled with 1:10,000 CFDA—SE (Thermo Fisher) in PBS for 10 minutes. B16F10 cells were opsonized with 10 μg/mL anti-TYRP1 (TA99; Bio X Cell) in PBS for 2 hours at 4° C.with occasional inverting. For CD47 blocked B16F10 cells, 5 μg/mL of […] were added. During the incubation time, the BMDMs were washed with media then stained with 1:2,000 CellTracker Deep Red (Thermo Fisher) in PBS with Ca2^+/Mg2^+ for 10 min. After washing, 50 μM of the nano—Self peptides were incubated with the BMDMs for 1 hour at 37° C., 5% CO2 and 95% humidity. Finally, BMDMs were washed twice with PBS and then twice with serum-free IMDM.
Without removing the supernatant, the opsonized melanoma cells were added to the labeled BMDMs at a ratio of 2:1 for 2 hours at 37° C., 5% CO2 and 95% humidity. During the last 15 minutes of the assay, the cells were Hoechst stained. The wells were washed with serum free IMDM then fixed with 4% formaldehyde for 15 minutes at RT, and PBS washed. Fluorescence imaging was performed using an Olympus IX71 with a digital EMCCD camera (Cascade 512B) and a 40×/0.6 NA objective. Quantification was done with ImageJ (NIH). At least 200 cells were analyzed and two-tailed student's t-test was used to determine statistical significance.

In assay [3] the test system is human THP-1 macrophages. Kind of assay: Residual adhesion of opsonized RBCs to macrophages. The assay is classed as cell-based. Conditions: 50 μM peptide. An excerpt:
To measure the residual adhesion of RBCs and distinguish it from internalization by macrophages, the engulfment assay with human RBCs used a secondary antibody against the opsonizing IgG, which allowed us to clearly see RBCs in contact with macrophages that are not internalized (FIG. 29C). The cells are also firmly attached to the macrophages because the culture dishes were rinsed after fixation and secondary antibody labeling. […] All of the RBCs in these samples are equally opsonized with IgG that binds Fc-receptors (FcR's) on macrophages, and so differences in measured adhesion implicate differences in the CD47—SIRPα interaction.

The subject of assay [4] is A549 (SIRPα positive) cells. The assay can be described thus: Confocal live staining with FAM-labeled peptides, A549 cells. The assay is classed as binding, human. As to conditions: 100 uM and 1 μM FAM-labeled peptide. On the procedure:
SIRPα staining and confocal imaging. THP-1 monocytes were PMA-differentiated in RPMI 1640 for 24 hours. J774A.1, A549, and COS-1 cells were plated for 24 hours in media, respectively. Cells were washed with respective media prior to addition of fluorescent peptides. The peptides were left to incubate for 1 hour at 37 ° C., 5% CO2 and 95% humidity. For fixed cell staining, cells were incubated with 4% formaldehyde (Pierce) for 15 minutes prior to the addition of fluorescent peptides whereas for live cell staining, fixation was done after incubation with the FAM-labeled peptides. Nuclei were stained with 1 μg/mL Hoechst 33342 (Invitrogen). Cells were the washed PBS three times before analysis. Fluorescence imaging of fixed cells was performed using an Olympus IX71 with a digital EMCCD camera (Cascade 512B) and a 40×/0.6 NA objective. […] Quantification was done with ImageJ (NIH).
In order to visualize the uneven binding of the peptides to the surface of the macrophages, a live staining experiment of THP-1, J774A.1, and A549 cells, which all express SIRPα at different levels, was performed with FAM-labeled nS-wt and nS-X and analyzed by confocal microscopy (FIG. 11). […] Fluorescence of nS-X was consistently lower on THP-1 and J774A.1 macrophages relative to nS-wt. […]

The subject of assay [5] is mouse J774A.1 macrophages. Kind of assay: In vitro phagocytosis assay: opsonized human RBCs engulfed by mouse J774A.1 macrophages. The assay is classed as cell-based. As to conditions: saturating / 50 μM peptide. The procedure:
as §1, with “In vitro phagocytosis assay. […] For CD47 blocked RBCs, 5 μg/mL of mouse anti-human CD47 (B6H12; BD Biosciences) were added. Thereafter, RBCs were washed with PBS three times and stained with PKH26 dye (1:800 dilution in PBS; Sigma) for 1 hour at RT with shaking in the dark. RBCs were washed and resuspended in PBS. J774A.1 macrophages were plated for 24 hours in RPMI. For SIRPα blocked J774A.1 macrophages, the same peptide blocking procedure as described elsewhere herein was used with the addition of a positive control using 5 μg/mL rat anti-mouse SIRPα ([…]; BD Biosciences). […] CO2” for “CO2”

In the next assay the target is T1, soluble human SIRPα (Homo sapiens, UniProt P78324).
T1 construct: Soluble human SIRPα fused with glutathione s-transferase (SIRPα-GST); GST (glutathione S-transferase); made in house
Kind of assay: Binding of biotinylated peptides on streptavidin beads to soluble SIRPα. An excerpt: SIRPα Expression and Purification. Soluble human SIRPα fused with glutathione s-transferase (SIRPα-GST) was expressed and purified as previously published (Tsai, et al., 2008, J. Cell Biol. 180:989-1003).
Peptide biotinylation: NHS-biotin (Thermo Fischer) was mixed with nS-wt and nS-V, respectively, following the manufacturer's protocol. The biotinylated peptides were dialyzed against PBS.
Streptavidin-beads binding: Streptavidin-coated polystyrene beads of 2.1 μm radius (Spherotech) were washed and blocked 3x in PBS plus 0.4% BSA. nS-wt-biotin or nS-V-biotin were incubated with the beads for 1 hour at room temperature with shaking. Beads were washed with PBS, then incubated with recombinant SIRPα for 1 hour in ice. Streptavidin beads were labeled with rabbit anti-streptavidin-FITC (Invitrogen) and SIRPα was stained with mouse anti-SIRPα-allophycocyanin (anti-SIRPα-APC; Invitrogen).

T1 sequence (P78324 31-373 limits assumed): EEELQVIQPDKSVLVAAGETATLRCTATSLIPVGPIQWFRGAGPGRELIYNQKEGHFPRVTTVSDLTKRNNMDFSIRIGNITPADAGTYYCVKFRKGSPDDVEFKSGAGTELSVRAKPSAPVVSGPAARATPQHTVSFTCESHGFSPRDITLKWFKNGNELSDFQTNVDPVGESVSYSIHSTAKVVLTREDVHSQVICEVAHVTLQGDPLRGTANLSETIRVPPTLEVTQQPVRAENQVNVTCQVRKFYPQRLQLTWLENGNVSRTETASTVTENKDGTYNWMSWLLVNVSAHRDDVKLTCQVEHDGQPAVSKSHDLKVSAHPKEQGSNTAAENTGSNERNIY

Regarding “LETVEGTR (LETVEGTR-NH2) [nS-X, scrambled control peptide]”, the “effect on phagocytosis of opsonized RBCs (words)” value (shortened to “effect on phagocytosis … (words)”) is on record as “no effect is observed; also recorded: unaffected; also recorded: do not affect baseline engulfment of opsonized RBCs; also recorded: does not affect opsonization-driven eating of RBCs” in the assay on human THP-1 macrophages [1] (saturating / 50 μM peptide) and “do not have effects on phagocytosis” with human THP-1 macrophages [1] (saturating / 50 μM peptide, listed as nSX). Also, the results for the “effect on pTyr signal” value in the assay on THP-1 macrophages and with THP-1 macrophages (listed as nSX) were “inhibition of phosphorylation is not observed” and “had no effect on pTyr”, respectively. The “effect on phagocytosis of opsonized WT and SIRPα KO B16 cells” value in assay [2] is “no effect; also recorded: does not affect opsonization-driven eating”. In the assay with human THP-1 macrophages [3], the “residual adhesion of opsonized RBCs to macrophages” value is recorded as “predominantly adherent RBCs”. Besides, in assay [4], the “binding to A549 cells” value is “fluorescence was not observed at either concentration”.

As to “VTELFREG (VTELFREG-NH2) [nS-F, nano-Self peptide with Thr to Phe mutation]”, the “effect on phagocytosis … (words)” value in the assay on human THP-1 macrophages [1] (20 nM peptide) is given as “did not significantly change the amount of macrophage eating relative to anti-CD47 treatment; also recorded: only modest activity”; in the assay with human THP-1 macrophages [1] (saturating / 50 μM peptide) it was “significantly greater than any other peptide tested; also recorded: Maximum levels of phagocytic macrophages”; in assay [5] it was “significantly greater than any other peptide tested”. Also, the “increase of macrophage phagocytosis relative to nS-wt” value in the assay on human THP-1 macrophages [1] (saturating peptide) was “roughly 25%”. Further, the “effect on pTyr signal” value with THP-1 macrophages is “also suppressed pTyr”. Also, the “effect on phagocytosis of opsonized WT and SIRPα KO B16 cells” value in assay [2] is given as “Maximum levels of phagocytic macrophages”. Further, the “residual adhesion of opsonized RBCs to macrophages” value in the assay on human THP-1 macrophages [3] is on record as “lowest amount of residual adhesion to macrophages”.

As to VTELVREG [nS-V, VTELVREG], the “effect on phagocytosis … (words)” value with human THP-1 macrophages [1] (20 nM peptide) is “did not significantly change the amount of macrophage eating relative to anti-CD47 treatment”; in the assay on human THP-1 macrophages [1] (saturating / 50 μM peptide), “activity profiles in phagocytosis assays that are similar to the monovalent nS-F”. In addition, the “SIRPα binding to peptide-coated beads” value on soluble human SIRPα is “fluorescence is only observed in the presence of biotinylated peptide”.
